Consider 13 compounds from the SangsterLogP compilation.

A word on the logD: it is lipophilicity at a set pH, counting ionised and neutral species.

This series is described as follows: method code SF-AS, from PMID: 4083029. As to conditions: pH 5.0.
`O=c1c2c(nc3ccccn13)CCCCCC2` gave a logD of 2.29.

The compound `O=c1c2c(nc3n1CCCCCC3)CCCCC2` displayed a logD of 2.43.

`O=c1c2c(nc3n1CCCCC3)CCCCCC2`: the pH-dependent lipophilicity (logD) came out at 2.41.

Regarding `O=c1c2c(nc3ccccn13)CCCCC2`, the logD was 1.63.

For the compound `Cc1cccc2nc3c(c(=O)n12)CCCCC3`, the logD was determined as 1.91.

For `Cc1cccc2nc3n(c(=O)c12)CCC3`, the logD was found to be 1.59.

With `Cc1ccn2c(=O)c3c(nc2c1)CCCCC3`, the logD was 1.86.

Compound `Cc1ccc2nc3c(c(=O)n2c1)CCCCC3` showed a logD of 2.07.

As for `Cc1ccc2c(=O)n3c(nc2c1)CCCCC3`, the logD stood at 2.44.

`O=c1c2ccccc2nc2n1CCCC2`: the logD was 1.49.

Compound `O=c1c2c(nc3n1CCCCCC3)CCC2` gave a logD of 1.61.

Take `O=c1c2c(nc3n1CCCC3)CCCCC2`: the logD was 1.6.

As to `O=c1c2c(nc3n1CCCCCC3)CCCC2`, the logD is 2.13.
